The source of these data is patent US5627215A, “Unsaturate amino compounds for use as anticancer and antiprotozoic agent” (Ciba-Geigy Corporation, priority 1993, dated 1997).

For assay [1], the system named is mouse ascites L1210 leukaemia cells. Briefly: Levels of putrescine, spermidine and spermine (polyamine pools) in mouse ascites L1210 leukemia cells (method of Porter et al., HPLC). Type of assay: cell-based. The following applies: 48 h incubation; for activity at 10 µM: test compound 10 μM; for activity at 5 µM: test compound 5 μM. The protocol: Mouse ascites L1210 leukaemia cells are cultured (at 37° C.) in RPMI-1640 medium (which contains, per litre, 100 mg of Ca(NO3)2,400 mg of KCl, 100 mg of MgSO4.7H2 O, 6000 mg of NaCl, 2000 mg of NaHCO3, 801 mg of Na2 HPO4, 242 mg of L-Arg.HCl, 50 mg of L-Ash, 20 mg of L-Asp, 50 mg of L-Cys, 300 mg of L-Gln, 20 mg of L-Glu, 10 mg of Gly, 18.2 mg of L-His.HCl.H2 O, 20 mg of L-hydroxyproline, 50 mg of L-Leu, 40 mg of L-Lys.HCl, 15 mg of L-Met, 15 mg of L-Phe, 20 mg of L-Pro, 30 mg of L-Ser, 20 mg of L-Thr, 5 mg of L-Trp, 20 mg of L-Tyr, 20 mg of L-Vat, 1 mg of […], 0.2 mg of biotin, 3 mg of choline chloride, 1 mg of folic acid, 35 mg of i-inositol, 1 mg of nicotinamide, 0.25 mg of pantothenoic acid calcium salt, 1 mg of pyridoxine.HCl, 0.2 mg of riboflavin, 1 mg of thiamine. HCl, 0.005 mg of vitamin B12, 2000 mg of glucose, 1 mg of glutathione, and 5 mg of phenol red), which also contains 2 % 4-(2-hydroxyethyl)-1-piperazineethanesulfonic acid/3-(N-morpholino)propanesulfonic acid, 1 mM aminoguanidine and 10% NuSerum (Collaborative Research Inc., Lexington, Mass.). The cells are cultured under a humid 5% carbon dioxide atmosphere at 37° C. either in glass culture tubes (2 ml) or in 25 or 75 cm^2 tissue culture bottles in a total volume of 15 or 50 ml, respectively. The cultures are treated with the compounds of formula I or with 0.1 mM spermidine (controls: without corresponding compounds) during the logarithmic growth phase (0.5 to 1×10^5 cells/ml). The number of cells is measured by electronic particle counting (Model ZF Coulter Counter, Coulter Electronics, Hialeah, Fla.) and confirmed from time to time by haemocytometer measurements. The viability of the cells is measured by trypan blue exclusion measurement (0.5% in unbuffered 0.9% sodium chloride solution ).
For polyamine determination, the cell samples are washed twice in cold PBS (="Phosphate Buffered Saline"--contains per litre 8000 mg of NaCl, 200 mg of KCl, 1150 mg of Na2 HPO4.2H2 O, 200 mg of KH2 PO4, 100 mg of MgCl2.H2 O, 200 mg of MgSO4.H2 O and CaCl2; pH 7.2), and an aliquot of 10^7 cells is removed for polyamine determination. The cells are formed into a pellet, and the PBS supernatant is removed carefully using a cotton wool swab. The pellet containing the cells is then maintained together with 0.5 ml of 0.6M perchloric acid for 30 minutes at 4° C. and is then centrifuged for 3 minutes at 12,000 g using a microcentrifuge. The supernatant is frozen at -20° C. until the HPLC analysis. For that purpose, the polyamines in a 50 μl sample of the perchloric acid extract are separated over an HPLC system using a glass "Microbore Column" having a diameter of 2.8 mm, which is packed to a height of 2 cm with TLC-4A-cationexchange resin (Durrum Chemical Corp., Palo Alto, Calif.). The column temperature is maintained at 65° C. by means of a water bath with circulating water. The column is eluted at a flow rate of 16 ml/h with an initial column pressure of 34.45 bar, which decreases as the ionic strength of the elution buffer increases. Buffer 1 (which contains 0.2M boric acid, 0.5M NaCl, 0.03% Brij 35 (polyoxyethylene monolauryl ether, the number of ethyleneoxy radicals is approximately 23; Pierce Chemical Co., Rockford, Ill.) and 0.0001% octanoic acid, pH adjusted to 6.0 with saturated KOH) is flushed through the column for 4 minutes. Buffer 2 (which contains 0.2M boric acid, 2.15M NaCl, 0.03% Brij 35 and 0.0001% octanoic acid, pH adjusted as above) is pumped through for 6 minutes. Buffer 3 (which contains 0.2M boric acid, 2.9M NaCl and 0.0001% octanoic acid (pH adjusted as above)) is likewise applied for 6 minutes. The column is re-equilibrated for 10 minutes with buffer 1, before the next sample is introduced. The column eluate is derivatised with 0.05% o-phthalaldehyde (Durrum Chemical Corp.) in 0.4M borate buffer (pH 10.4)/1 mM 2-mercaptoethanol/0.09% Brij 35. The flow rate for o-phthalaldehyde is 8 ml/h. […]

The subject of assay [2] is human T24 bladder carcinoma cells. Briefly: Inhibition of growth of human T24 bladder carcinoma cells (methylene blue staining, 5 days). In kind it is cell-based. The following applies: 120 h, Eagle's minimal essential medium, 5 days incubation. The protocol:
The carcinoma cells (1000-1500) are transferred to 96-well microlitre plates and are incubated overnight under the said conditions. The test compound is added in serial dilutions on day 1. The plates are incubated under the said conditions for 5 days. During that period, control cultures undergo at least 4 cell divisions. After incubation, the cells are fixed with 3.3% (weight/volume=w/v) aqueous glutaraldehyde solution, washed with water and stained with 0.05% (w/v) aqueous methylene blue solution. After washing, the dye is eluted with 3% (w/v) aqueous hydrochloric acid. The optical density (OD) per well, which is directly proportional to the number of cells, is then measured by means of a photometer (Titertek multiskan) at 665 nm. The IC50 values are calculated by means of a computer system using the formula [formula] The IC50 value is defined as the concentration of active ingredient at which the number of cells per well at the end of the incubation period is only 50% of the number of cells in the control cultures. Inhibition of growth of human T24 bladder carcinoma cells: Using the method for inhibition of growth of human T24 bladder carcinoma cells om Eagle's minimal essential medium (see above), the following test results are obtained (given as IC50 =concentration of the active ingredient at which the number of cells per well at the end of the incubation period is only 50% of the number of cells in the control cultures): […]

Setting [3] is: read-out: level of putrescine (PU), % of the respective control.
Where [4] appears, read: read-out: level of spermidine (SPD), % of the respective control.
Setting [5] is: read-out: level of spermine (SPM), % of the respective control.

Structures can show the parent of a compound that is named as a salt. Where two headings read alike, the source gives them in different places.

For orientation: IC50 means the concentration that inhibits the measured activity by half. Read a low IC50 as higher potency.

Take `CCCNCCCNC/C=C/CNCCCNCC` [Example 9, (E)-1-Ethyl-14-propyl-1,5,10,14-tetraazatetradec-7-ene tetrahydrochloride]: the activity at 10 µM in assay [1] (setting [3]) worked out at 6.9%; in assay [1] (setting [4]), 2%; in assay [1] (setting [5]), 19%. Moreover, in assay [2], the half-maximal inhibitory concentration (IC50) came out at 1100 nM.
As for `C=CCNCCCNC/C=C/CNCCCNCC=C` [Example 2, (E)-1,14-Di-allyl-1,5,10,14-tetraazatetradec-7-ene tetrahydrochloride], the activity at 10 µM in assay [1] (setting [3]) is 16%; in assay [1] (setting [4]), 3.1%; in assay [1] (setting [5]), 36%. This compound also returned a half-inhibitory concentration (IC50) in assay [2] of 600 nM.
For `C(=C\CNCCCNCC1CC1)/CNCCCNCC1CC1` [Example 16, (E)-1,14-Di-cyclopropylmethyl-1,5,10,14-tetraazatetradec-7-ene tetrahydrochloride], in that order: 12%, 24%, 62% and 920 nM.
For `CCNCCCNC/C=C/CNCCCNCC` [Example 5, (E)-1,14-Di-ethyl-1,5,10,14-tetraazatetradec-7-ene tetrahydrochloride], the activity at 5 µM was found to be 4.1% in assay [1] (setting [3]), 2.1% in assay [1] (setting [4]) and 30% in assay [1] (setting [5]).
With `C=CCNCCCNC/C=C/CNCCCNCC` [Example 6, (E)-1-Ally-14-ethyl-1,5,10,14-tetraazatetradec-7-ene tetrahydrochloride], the activity at 10 µM is 4.1% in assay [1] (setting [3]), 2.1% in assay [1] (setting [4]) and 12% in assay [1] (setting [5]). For the same compound, the half-maximal inhibitory concentration (IC50) in assay [2] was found to be 3000 nM.
Consider `CCCNCCCNC/C=C/CNCCCNCCC` [Example 1, (E)-1,14Di-propyl-1,5,10,14-tetraazatetradec-7-ene tetrahydrochloride], for which the values for the activity at 10 µM in assay [1] (setting [3]), in assay [1] (setting [4]) and in assay [1] (setting [5]) were 9.4%, 12% and 67%, respectively. For the same compound, half-maximal inhibition in assay [2] (IC50) was put at 640 nM.
The like results for `C=CCNCCCNC/C=C/CNCCCNCCC` [Example 13, (E)-1-Allyl-14-propyl-1,5,10,14-tetraazatetradec-7-ene tetrahydrochloride] were, in that order, 0%, 1.3%, 25% and 2140 nM.
For the compound `CCCCNCCCNC/C=C/CNCCCNCC` [Example 8, (E)-1-Butyl-14-ethyl-1,5,10,14-tetraazatetradec-7-ene tetrahydrochloride], the figures for the activity at 10 µM in assay [1] (setting [3]), in assay [1] (setting [4]) and in assay [1] (setting [5]) were 4.8%, 0.2% and 4%, respectively. This compound also came in with an IC50 in assay [2] of 550 nM.
`CCCCNCCCNC/C=C/CNCCCNCCCC` [Example 3, (E)-1,14-Di-butyl-1,5,10,14-tetraazatetradec-7-ene tetrahydrochloride] had a half-maximal inhibitory concentration (IC50) in assay [2] of 8200 nM.
